Activity calls are given as the source filed them. No cut-off for these calls is given here.
How the values were obtained:
[1] = target: T1, 5'-nucleotidase (Rattus norvegicus, UniProt P21588); assay: Inhibition of rat Ecto-5'-nucleotidase transfected in COS7 cells preincubated for 10 mins followed by AMP addition measured after 10 mins; format: cell-based, COS-7
T1 sequence (P21588 whole entry): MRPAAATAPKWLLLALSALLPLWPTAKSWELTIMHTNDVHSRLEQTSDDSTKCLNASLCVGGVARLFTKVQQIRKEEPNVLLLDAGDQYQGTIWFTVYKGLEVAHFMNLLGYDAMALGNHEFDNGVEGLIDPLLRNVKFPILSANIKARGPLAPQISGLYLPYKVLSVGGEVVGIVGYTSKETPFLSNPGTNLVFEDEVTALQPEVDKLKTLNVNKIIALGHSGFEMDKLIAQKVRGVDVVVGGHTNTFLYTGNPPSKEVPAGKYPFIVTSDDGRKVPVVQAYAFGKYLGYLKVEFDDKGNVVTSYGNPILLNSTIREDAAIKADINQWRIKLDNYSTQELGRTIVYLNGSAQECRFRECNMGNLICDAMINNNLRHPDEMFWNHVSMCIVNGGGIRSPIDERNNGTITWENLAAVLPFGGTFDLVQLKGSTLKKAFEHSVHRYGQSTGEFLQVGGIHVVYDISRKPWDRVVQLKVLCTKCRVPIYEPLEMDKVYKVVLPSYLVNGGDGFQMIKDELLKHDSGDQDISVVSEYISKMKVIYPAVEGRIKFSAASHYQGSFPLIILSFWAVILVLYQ

[2] = target: Intestinal-type alkaline phosphatase (Bos taurus, UniProt P19111); assay: Inhibition of calf intestinal alkaline phosphatase preincubated for 3 to 5 mins followed by CDP-star substrate addition measured after 15 mins by luminescence assay
Sequence of Intestinal-type alkaline phosphatase (P19111 whole entry): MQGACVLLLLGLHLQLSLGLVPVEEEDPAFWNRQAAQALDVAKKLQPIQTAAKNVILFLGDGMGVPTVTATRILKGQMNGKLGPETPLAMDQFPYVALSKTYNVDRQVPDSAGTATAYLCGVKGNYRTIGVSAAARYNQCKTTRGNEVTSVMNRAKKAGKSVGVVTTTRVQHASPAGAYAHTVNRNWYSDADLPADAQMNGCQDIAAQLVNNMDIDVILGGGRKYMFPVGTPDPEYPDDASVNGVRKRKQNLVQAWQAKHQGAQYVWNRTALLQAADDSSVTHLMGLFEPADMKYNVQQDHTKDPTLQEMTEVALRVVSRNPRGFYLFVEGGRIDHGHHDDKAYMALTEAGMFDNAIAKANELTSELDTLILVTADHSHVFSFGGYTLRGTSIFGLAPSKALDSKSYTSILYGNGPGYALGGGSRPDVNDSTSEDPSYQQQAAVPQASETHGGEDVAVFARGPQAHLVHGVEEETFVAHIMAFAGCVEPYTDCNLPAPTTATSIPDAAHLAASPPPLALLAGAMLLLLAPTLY

[3] = target: T2, Alkaline phosphatase, tissue-nonspecific isozyme (Bos taurus, UniProt P09487); assay: Inhibition of bovine tissue non-specific alkaline phosphatase preincubated for 3 to 5 mins followed by CDP-star substrate addition measured after 15 mins by luminescence assay
T2 sequence (P09487 whole entry): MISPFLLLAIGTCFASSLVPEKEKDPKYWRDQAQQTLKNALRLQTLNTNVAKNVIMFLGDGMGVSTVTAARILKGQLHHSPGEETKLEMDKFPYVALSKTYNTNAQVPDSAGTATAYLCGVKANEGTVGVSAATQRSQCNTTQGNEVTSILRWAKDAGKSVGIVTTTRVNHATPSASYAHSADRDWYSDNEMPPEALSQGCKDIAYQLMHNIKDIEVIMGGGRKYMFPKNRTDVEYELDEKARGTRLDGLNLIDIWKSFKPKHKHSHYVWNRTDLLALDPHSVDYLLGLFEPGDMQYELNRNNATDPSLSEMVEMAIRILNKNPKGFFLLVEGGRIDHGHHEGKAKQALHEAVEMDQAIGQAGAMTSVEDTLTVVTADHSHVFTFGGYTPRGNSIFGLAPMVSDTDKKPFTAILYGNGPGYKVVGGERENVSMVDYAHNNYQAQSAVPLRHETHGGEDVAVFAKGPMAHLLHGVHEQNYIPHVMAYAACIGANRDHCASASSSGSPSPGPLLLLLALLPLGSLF

[4] = target: T3, 5'-nucleotidase (Homo sapiens, UniProt P21589); assay: Inhibition of human Ecto-5'-nucleotidase transfected in COS7 cells preincubated for 10 mins followed by AMP addition measured after 10 mins; format: cell-based, COS-7
T3 sequence (P21589 whole entry): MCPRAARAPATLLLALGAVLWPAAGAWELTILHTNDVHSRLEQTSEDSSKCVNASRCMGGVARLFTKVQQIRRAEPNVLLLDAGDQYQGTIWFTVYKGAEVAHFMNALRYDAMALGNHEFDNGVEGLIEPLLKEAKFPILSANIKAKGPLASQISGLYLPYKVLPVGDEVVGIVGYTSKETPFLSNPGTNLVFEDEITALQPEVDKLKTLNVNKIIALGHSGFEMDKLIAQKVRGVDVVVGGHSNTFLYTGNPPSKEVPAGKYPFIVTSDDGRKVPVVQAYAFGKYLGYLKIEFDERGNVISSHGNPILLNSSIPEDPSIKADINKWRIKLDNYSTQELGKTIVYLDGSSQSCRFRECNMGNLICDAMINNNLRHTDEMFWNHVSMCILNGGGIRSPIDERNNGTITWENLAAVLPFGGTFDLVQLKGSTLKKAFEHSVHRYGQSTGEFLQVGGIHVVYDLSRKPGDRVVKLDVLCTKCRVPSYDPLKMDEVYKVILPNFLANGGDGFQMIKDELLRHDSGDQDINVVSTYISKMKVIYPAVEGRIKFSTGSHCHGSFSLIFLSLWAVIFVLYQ

[5] = target: T4, 5'-nucleotidase (Rattus norvegicus) (UniProt P21588); assay: Inhibition of rat Ecto-5'-nucleotidase transfected in COS7 cells at 1 mM preincubated for 10 mins followed by AMP addition measured after 10 mins; format: cell-based; settings: COS-7
T4 sequence (whole entry): T1 sequence (P21588 whole entry)

[6] = target: T3, 5'-nucleotidase; assay: Inhibition of human Ecto-5'-nucleotidase transfected in COS7 cells at 1 mM preincubated for 10 mins followed by AMP addition measured after 10 mins; format: cell-based; settings: COS-7
[7] = target: T5, Alkaline phosphatase, tissue-nonspecific isozyme (Bos taurus) (UniProt P09487); assay: Inhibition of bovine tissue non-specific alkaline phosphatase at 0.2 mM preincubated for 3 to 5 mins followed by CDP-star substrate addition measured after 15 mins by luminescence assay
T5 sequence (whole entry): T2 sequence (P09487 whole entry)

[8] = target: T5, Alkaline phosphatase, tissue-nonspecific isozyme (Bos taurus); assay: Competitive inhibition of bovine tissue non-specific alkaline phosphatase at 0.5 to 2 uM preincubated for 3 to 5 mins followed by CDP-star substrate addition measured after 15 mins by double-reciprocal plot analysis
[9] = species: Bos taurus; assay: Selectivity ratio of Ki for calf intestinal alkaline phosphatase to Ki for bovine tissue non-specific alkaline phosphatase
[10] = target: Intestinal-type alkaline phosphatase (Bos taurus) (UniProt P19111); settings: 0.5 to 2 uM
Sequence of Intestinal-type alkaline phosphatase (Bos taurus) (P19111 20-506 limits assumed): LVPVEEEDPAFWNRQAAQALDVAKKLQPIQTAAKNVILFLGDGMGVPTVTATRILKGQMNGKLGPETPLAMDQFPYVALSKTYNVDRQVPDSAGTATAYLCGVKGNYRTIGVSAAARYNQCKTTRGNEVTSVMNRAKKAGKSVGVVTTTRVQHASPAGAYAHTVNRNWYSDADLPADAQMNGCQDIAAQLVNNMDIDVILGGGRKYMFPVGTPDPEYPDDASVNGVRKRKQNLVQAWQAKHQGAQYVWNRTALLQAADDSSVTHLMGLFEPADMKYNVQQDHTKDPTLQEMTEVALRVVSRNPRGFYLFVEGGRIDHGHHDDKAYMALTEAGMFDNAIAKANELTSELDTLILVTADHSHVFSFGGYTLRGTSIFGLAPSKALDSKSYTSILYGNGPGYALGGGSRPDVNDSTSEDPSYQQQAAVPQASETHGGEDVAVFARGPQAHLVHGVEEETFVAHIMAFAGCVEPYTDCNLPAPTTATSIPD
Description: Competitive inhibition of calf intestinal alkaline phosphatase at 0.5 to 2 uM preincubated for 3 to 5 mins followed by CDP-star substrate addition measured after 15 mins by double-reciprocal plot analysis

| Compound | IC50 [1] [nM] | Ki [1] [nM] | IC50 [2] [nM] | Ki [2] [nM] | IC50 [3] [nM] | Ki [3] [nM] | IC50 [4] [nM] | Ki [4] [nM] | inhibition [5] [%] | further results |
| --- | --- | --- | --- | --- | --- | --- | --- | --- | --- | --- |
| COC1Oc2c(Cl)cc(Cl)cc2C(=O)/C1=C\Nc1cccc(S(N)(=O)=O)c1 (racemic) | 4810 | 229 | 8340 | 3590 | 3520 | 1490 | 970 | 46 |  |  |
| COC1Oc2ccc(F)cc2C(=O)/C1=C\Nc1ccc(S(N)(=O)=O)cc1 (racemic) |  |  | 68600 | 29100 | 17600 | 7510 |  |  | 46.4 | inhibition [6]: 46.8% |
| COC1Oc2ccccc2C(=O)/C1=C\Nc1cccc(S(N)(=O)=O)c1 (racemic) | 2810 | 134 | 39800 | 16900 |  |  | 380 | 18 |  | inhibition [7]: 32.1% |
| CCOC1Oc2ccc(F)cc2C(=O)/C1=C\Nc1cccc(S(N)(=O)=O)c1 (racemic) | 990 | 47 |  |  |  |  |  |  |  |  |
| O=c1c(C2Nc3ccccc3S(=O)(=O)N2)coc2ccc(Br)cc12 (racemic) |  |  |  |  |  |  |  |  | 20.3 |  |
| CCOC1Oc2ccc(CC)cc2C(=O)/C1=C\Nc1cccc(S(N)(=O)=O)c1 (racemic) |  |  |  |  |  |  |  |  | 40.5 |  |
| COC1Oc2ccc(Cl)cc2C(=O)/C1=C\Nc1ccccc1S(N)(=O)=O (racemic) | 1310 | 62 | 2320 | 992 |  |  | 1350 | 64 |  | inhibition [7]: 29.9% |
| COC1Oc2ccc(C)cc2C(=O)/C1=C\Nc1ccccc1S(N)(=O)=O (racemic) |  |  | 5060 | 2180 | 180 | 78 |  |  | 47.8 | inhibition [8]: Active; Ratio Ki [9]: 28; inhibition [6]: 39.1% |
| COC1Oc2c(Cl)cc(Cl)cc2C(=O)/C1=C\Nc1ccc(S(N)(=O)=O)cc1 (racemic) | 10100 | 472 | 3250 | 1380 | 16200 | 6190 | 2920 | 138 |  |  |
| COC1Oc2ccc(F)cc2C(=O)/C1=C\Nc1ccccc1S(N)(=O)=O (racemic) |  |  | 10200 | 4260 | 17100 | 7290 |  |  | 45.4 | inhibition [6]: 48.2% |
| COC1Oc2ccc(C)cc2C(=O)/C1=C\Nc1cccc(S(N)(=O)=O)c1 (racemic) |  |  | 6560 | 2770 | 110000 | 47200 |  |  | 47.5 | inhibition [6]: 44.5% |
| COC1Oc2ccc(F)cc2C(=O)/C1=C\Nc1cccc(S(N)(=O)=O)c1 (racemic) |  |  | 13500 | 5660 | 1460 | 623 |  |  | 46 | inhibition [6]: 44.4% |
| CCOC1Oc2ccccc2C(=O)/C1=C\Nc1ccc(S(N)(=O)=O)cc1 (racemic) |  |  |  |  |  |  |  |  | 39.5 |  |
| COC1Oc2ccc(Cl)cc2C(=O)/C1=C\Nc1cccc(S(N)(=O)=O)c1 (racemic) | 2380 | 113 | 31900 | 13600 |  |  | 560 | 27 |  | inhibition [7]: 34.2% |
| CCOC1Oc2ccc(CC)cc2C(=O)/C1=C\Nc1ccc(S(N)(=O)=O)cc1 (racemic) | 3730 | 178 |  |  |  |  |  |  |  |  |
| CCOC1Oc2ccc(F)cc2C(=O)/C1=C\Nc1ccc(S(N)(=O)=O)cc1 (racemic) | 2130 | 101 |  |  |  |  |  |  |  |  |
| O=c1c(C2Nc3ccccc3S(=O)(=O)N2)coc2ccc(F)cc12 (racemic) | 2710 | 129 |  |  |  |  |  |  |  |  |
| CCOC1Oc2ccccc2C(=O)/C1=C\Nc1ccc(S(=O)(=O)Nc2nnc(C)s2)cc1 (racemic) |  |  |  |  |  |  |  |  | 48 |  |

| Compound | IC50 [1] [nM] | Ki [1] [nM] | IC50 [2] [nM] | Ki [2] [nM] | IC50 [3] [nM] | Ki [3] [nM] | IC50 [4] [nM] | Ki [4] [nM] | inhibition [5] [%] | further results |
| --- | --- | --- | --- | --- | --- | --- | --- | --- | --- | --- |
| CCCCOC1Oc2ccccc2C(=O)/C1=C\Nc1ccc(S(N)(=O)=O)cc1 (racemic) |  |  | 48300 | 20600 | 4570 | 1950 | 1320 | 63 | 6.66 |  |
| CCCCOC1Oc2ccccc2C(=O)/C1=C\Nc1cccc(S(N)(=O)=O)c1 (racemic) | 3610 | 172 | 2290 | 978 | 77800 | 33200 | 377 | 18 |  |  |
| COC1Oc2ccccc2C(=O)/C1=C\Nc1ccc(S(N)(=O)=O)cc1 (racemic) |  |  | 565 | 240 | 171000 | 72900 | 7110 | 338 | 27.7 | inhibition [10]: Active |
| O=c1c(C2Nc3ccccc3S(=O)(=O)N2)coc2ccccc12 (racemic) | 3810 | 181 |  |  |  |  |  |  |  |  |
| CCOC1Oc2ccc(CC)cc2C(=O)/C1=C\Nc1ccccc1S(N)(=O)=O (racemic) | 101 | 4.7 |  |  |  |  |  |  |  |  |
| CCOC1Oc2ccc(Br)cc2C(=O)/C1=C\Nc1ccc(S(N)(=O)=O)cc1 (racemic) |  |  |  |  |  |  |  |  | 29.7 |  |
| COC1Oc2ccccc2C(=O)/C1=C\Nc1ccccc1S(N)(=O)=O (racemic) | 2390 | 114 | 7810 | 3340 | 715000 | 305000 | 1910 | 91 |  |  |
| CCOC1Oc2ccc(Br)cc2C(=O)/C1=C\Nc1cccc(S(N)(=O)=O)c1 (racemic) | 6130 | 292 |  |  |  |  |  |  |  |  |
| COC1Oc2ccc(Cl)cc2C(=O)/C1=C\Nc1ccc(S(N)(=O)=O)cc1 (racemic) | 1710 | 81 | 4430 | 1890 |  |  | 1660 | 79 |  | inhibition [7]: 20.9% |
| CCOC1Oc2ccccc2C(=O)/C1=C\Nc1ccc(S(=O)(=O)Nc2ccccn2)cc1 (racemic) | 15200 | 712 |  |  |  |  |  |  |  |  |
| CC(C)OC1Oc2ccccc2C(=O)/C1=C\Nc1ccc(S(N)(=O)=O)cc1 (racemic) | 540 | 26 | 527 | 220 | 47100 | 20100 | 1170 | 53 |  |  |
| COC1Oc2ccc(C)cc2C(=O)/C1=C\Nc1ccc(S(N)(=O)=O)cc1 (racemic) |  |  | 3130 | 1340 | 8170 | 3490 |  |  | 42.9 | inhibition [6]: 47% |
| CCOC1Oc2ccccc2C(=O)/C1=C\Nc1cccc(S(N)(=O)=O)c1 (racemic) |  |  |  |  |  |  |  |  | 30.1 |  |
| CCOC1Oc2ccccc2C(=O)/C1=C\Nc1ccc(S(=O)(=O)Nc2ccc(OC)nn2)cc1 (racemic) | 1090 | 51.7 |  |  |  |  |  |  |  |  |
| CCOC1Oc2ccc(Br)cc2C(=O)/C1=C\Nc1ccc(S(=O)(=O)Nc2ccccn2)cc1 (racemic) |  |  |  |  |  |  |  |  | 23.6 |  |
| COC1Oc2c(Cl)cc(Cl)cc2C(=O)/C1=C\Nc1ccccc1S(N)(=O)=O (racemic) | 1840 | 87 | 9870 | 4210 | 5360 | 2280 | 880 | 42 |  |  |
| CCOC1Oc2ccccc2C(=O)/C1=C\Nc1ccc(S(=O)(=O)Nc2cc(OC)nc(OC)n2)cc1 (racemic) |  |  |  |  |  |  |  |  | 28.2 |  |
| CCOC1Oc2c(Br)cc(Br)cc2C(=O)/C1=C\Nc1ccccc1S(N)(=O)=O (racemic) | 40100 | 1910 |  |  |  |  |  |  |  |  |
